Experimental data published in patent US20060069132A1, “Azolecarboxamide herbicides” (priority 2004, published 2006).
Like-named read-outs stand apart in the source and are kept apart here.

Legend:
[1] = tested on: ducksalad; assay: Test C flooded paddy test; type: in vivo, Heteranthera limosa
[2] = tested on: barnyardgrass; assay: Test A pre-/postemergence herbicide test; type: in vivo, Echinochloa crus-galli; details: for pest or weed control at 125 g/ha / pest or weed control at 500 g/ha: Echinochloa crus-galli, 240 h, read-out: Barnyardgrass plant response rating; for pest or weed control at 125 g/ha: 125 g ai/ha
Outline: (§1)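 Seeds sown in sandy loam received a preemergence directed soil spray of compound in non-phytotoxic solvent with surfactant; postemergence plants (2–10 cm, one- to two-leaf stage) were sprayed to runoff at the same time. After ~10 days in greenhouse, injury was rated visually versus untreated controls (0 = no effect, 100 = complete control).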

[3] = tested on: barnyardgrass; assay: Test C flooded paddy test; type: in vivo, Echinochloa crus-galli
Outline: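 Postemergence sprays were applied to plants 2 to 18 cm tall (1- to 4-leaf stage); in the flooded paddy test, barnyardgrass was grown to the 2-leaf stage. After 12 to 14 days in a greenhouse, injury was visually rated against untreated controls on a 0–100 scale (100 = complete control).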

[4] = tested on: large crabgrass; assay: Test A pre-/postemergence herbicide test; type: in vivo, Digitaria sanguinalis; details: for pest or weed control at 125 g/ha / pest or weed control at 500 g/ha: Digitaria sanguinalis, 240 h, read-out: Crabgrass, Large plant response rating; for pest or weed control at 125 g/ha: 125 g ai/ha
Outline: as §1

[5] = tested on: rice; assay: Test C flooded paddy test; type: in vivo, Oryza sativa
Outline: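 Postemergence sprays applied to plants 2 to 18 cm tall (1- to 4-leaf stage); paddy species grown to 2-leaf stage under flooding. After 12 to 14 days in greenhouse, visual rating versus untreated controls on 0–100 scale (0 no effect, 100 complete control).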

[6] = tested on: giant foxtail; assay: Test A pre-/postemergence herbicide test; type: in vivo, Setaria faberi; details: for pest or weed control at 125 g/ha / pest or weed control at 500 g/ha: Setaria faberi, 240 h, read-out: Foxtail, Giant plant response rating; for pest or weed control at 125 g/ha: 125 g ai/ha
Outline: as §1

[7] = 62 g ai/ha, scale 0 to 100 (0 no effect, 100 complete control)
[8] = 125 g ai/ha, scale 0 to 100 (0 no effect, 100 complete control)
[9] = 250 g ai/ha, scale of 0 to 100, 0 is no effect, 100 is complete control
[10] = 500 g ai/ha, visual rating after 12 to 14 days, scale 0 to 100 (0 no effect, 100 complete control)
[11] = Postemergence, 500 g ai/ha, 0 to 100 scale, 0 no effect, 100 complete control
[12] = Postemergence, 2000 g ai/ha, 0 to 100 scale, 0 no effect, 100 complete control
[13] = Preemergence, 500 g ai/ha, visual rating, 0 to 100 scale (0 no effect, 100 complete control)
[14] = Preemergence, 2000 g ai/ha, visual rating, 0 to 100 scale (0 no effect, 100 complete control)
[15] = preemergence, 500 g ai/ha, visual injury, 0 to 100 scale (0 no effect, 100 complete control)
[16] = post-emergence, Postemergence, 0 to 100 scale, 0 no effect, 100 complete control
[17] = post-emergence, Postemergence, 500 g ai/ha, 0 to 100 scale, 0 no effect, 100 complete control
[18] = pre-emergence, preemergence, visual injury, 0 to 100 scale (0 no effect, 100 complete control)
[19] = pre-emergence, preemergence, 500 g ai/ha, visual injury, 0 to 100 scale (0 no effect, 100 complete control)

SMILES	Ducksalad plant response rating [1, 8]	Ducksalad plant response rating [1, 9]	Plant response rating, Ducksalad [1, 10]	Barnyardgrass plant response rating [2, 11]	Plant response rating, Barnyardgrass [2, 12]	Barnyardgrass plant response rating [2, 14]	Barnyardgrass plant response rating [3, 7]	Barnyardgrass plant response rating [3, 9]	Plant response rating, Barnyardgrass [3, 10]	Crabgrass, Large plant response rating [4, 11]	Plant response rating, Crabgrass, Large [4, 12]	Crabgrass, Large plant response rating [4, 14]	Rice plant response rating [5, 8]	Rice plant response rating [5, 9]	Plant response rating, Rice [5, 10]	Foxtail, Giant plant response rating [6, 11]	Plant response rating, Foxtail, Giant [6, 12]	Foxtail, Giant plant response rating [6, 14]	Ducksalad plant response rating ([1]; 62 g ai/ha, scale 0 to 100)	Barnyardgrass plant response rating [3, 8]	other results
C=Cn1nc(C(C)(C)C)cc1C(=O)Nc1cccc(C(C)=O)c1 [Compound 127]	15	20	80	30	50	30	20	30	55	15	35	85	25	25	25	30	30	35	–	–	Ducksalad plant response rating [1, 7]: 0; Barnyardgrass plant response rating [2, 13]: 20; Barnyardgrass plant response rating ([3]; 125 g ai/ha, scale of 0 to 100, 0 is no effect, 100 is complete control): 30; Crabgrass, Large plant response rating [4, 13]: 75; Rice plant response rating [5, 7]: 20; Foxtail, Giant plant response rating [6, 13]: 20
CCn1nc(C(C)(C)C)c(F)c1C(=O)Nc1cc(C(=O)N(C)C)ccc1F [Compound 276, N-[5-[(dimethylamino)carbonyl]-2-fluorophenyl]-3-(1,1-dimethylethyl)-1-ethyl-4-fluoro-1H-pyrazole-5-carboxamide]	–	–	–	–	–	–	–	–	–	–	–	–	–	–	–	–	–	–	–	–	pest or weed control at 62 g/ha ([1]; Heteranthera limosa, 62 g ai/ha, scale 0 to 100, read-out: Ducksalad plant response rating): 0%; pest or weed control at 125 g/ha ([1]; Heteranthera limosa, 125 g ai/ha, scale 0 to 100 (0 no effect, 100 complete control), read-out: Ducksalad plant response rating): 20%; pest or weed control at 250 g/ha ([1]; Heteranthera limosa, 250 g ai/ha, scale of 0 to 100, 0 is no effect, 100 is complete control, read-out: Ducksalad plant response rating): 70%; pest or weed control at 500 g/ha ([1]; Heteranthera limosa, 500 g ai/ha, visual rating after 12 to 14 days, scale 0 to 100 (0 no effect, 100 complete control), read-out: Plant response rating, Ducksalad): 85%; pest or weed control at 62 g/ha ([3]; Echinochloa crus-galli, 62 g ai/ha, scale 0 to 100 (0 no effect, 100 complete control), read-out: Barnyardgrass plant response rating): 0%; pest or weed control at 125 g/ha ([3]; Echinochloa crus-galli, 125 g ai/ha, scale 0 to 100 (0 no effect, 100 complete control), read-out: Barnyardgrass plant response rating): 15%; pest or weed control at 250 g/ha ([3]; Echinochloa crus-galli, 250 g ai/ha, scale of 0 to 100, 0 is no effect, 100 is complete control, read-out: Barnyardgrass plant response rating): 50%; pest or weed control at 500 g/ha ([3]; Echinochloa crus-galli, 500 g ai/ha, visual rating after 12 to 14 days, scale 0 to 100 (0 no effect, 100 complete control), read-out: Plant response rating, Barnyardgrass): 70%; plant injury at 62 g/ha ([5]; Oryza sativa, 62 g ai/ha, scale 0 to 100, read-out: Rice plant response rating): 0%; plant injury at 125 g/ha ([5]; Oryza sativa, 125 g ai/ha, scale 0 to 100 (0 no effect, 100 complete control), read-out: Rice plant response rating): 15%; plant injury at 250 g/ha ([5]; Oryza sativa, 250 g ai/ha, scale of 0 to 100, 0 is no effect, 100 is complete control, read-out: Rice plant response rating): 50%; plant injury at 500 g/ha ([5]; Oryza sativa, 500 g ai/ha, visual rating after 12 to 14 days, scale 0 to 100 (0 no effect, 100 complete control), read-out: Plant response rating, Rice): 70%
C=CCN(C)C(=O)c1cccc(NC(=O)c2cc(C(C)(C)C)nn2CC)c1 [Compound 285]	80	90	90	55	80	90	10	55	75	15	35	85	40	45	65	25	55	90	45	25	Barnyardgrass plant response rating [2, 15]: 70; Crabgrass, Large plant response rating [4, 15]: 60; Rice plant response rating ([5]; 62 g ai/ha, scale 0 to 100): 25; Foxtail, Giant plant response rating [6, 15]: 60
CCOC(=O)c1cccc(NC(=O)c2cc(C(C)(C)C)nn2C)n1 [Compound 313]	30	–	–	80	95	90	0	–	–	70	100	95	20	–	–	70	80	90	0	0	Ducksalad plant response rating ([1]; 16 g ai/ha, scale 0 to 100): 0; Ducksalad plant response rating ([1]; 31 g ai/ha, scale 0 to 100): 0; Barnyardgrass plant response rating [2, 15]: 80; Barnyardgrass plant response rating ([3]; 16 g ai/ha, scale 0 to 100): 0; Barnyardgrass plant response rating ([3]; 31 g ai/ha, scale 0 to 100): 0; Crabgrass, Large plant response rating [4, 15]: 85; Rice plant response rating ([5]; 16 g ai/ha, scale 0 to 100): 0; Rice plant response rating ([5]; 31 g ai/ha, scale 0 to 100): 0; Rice plant response rating ([5]; 62 g ai/ha, scale 0 to 100): 0; Foxtail, Giant plant response rating [6, 15]: 75
CCNC(=O)c1ccc(F)c(NC(=O)c2c3c(nn2CC)C(C)(C)CC3)c1 [Compound 353]	0	30	30	–	–	–	0	20	20	–	–	–	0	20	40	–	–	–	0	0	Rice plant response rating ([5]; 62 g ai/ha, scale 0 to 100): 0
CCNC(=O)c1cccc(NC(=O)c2nc(C(C)(C)C)nn2CC)c1 [Compound 446, 3-(1,1-dimethylethyl)-1-ethyl-N-[3-[(ethylamino)carbonyl]phenyl]-1H-1,2,4-triazole-5-carboxamide]	–	–	–	–	–	–	–	–	–	–	–	–	–	–	–	–	–	–	–	–	pest or weed control at 125 g/ha [2, 16]: 80%; pest or weed control at 500 g/ha [2, 17]: 90%; pest or weed control at 125 g/ha [2, 18]: 55%; pest or weed control at 500 g/ha [2, 19]: 85%; pest or weed control at 125 g/ha [4, 16]: 45%; pest or weed control at 500 g/ha [4, 17]: 65%; pest or weed control at 125 g/ha [4, 18]: 10%; pest or weed control at 500 g/ha [4, 19]: 40%; pest or weed control at 125 g/ha [6, 16]: 75%; pest or weed control at 500 g/ha [6, 17]: 90%; pest or weed control at 125 g/ha [6, 18]: 70%; pest or weed control at 500 g/ha [6, 19]: 95%
